# From patent publication US20250186541A1, “DLL3 TARGETING PEPTIDES AND CONSTRUCTS THEREOF” (MARIANA ONCOLOGY INC., priority 2023, published 2025)
# Numbered stars: 1 amine (or outer) side, 2 acyl side, 3 side chain; on linkers, the order of the positions; unused ones are H or OH. Bridge positions count the residues as written; N and C are the ends. Square brackets hold non-standard residues; d marks the D form. Peptide text beside a SMILES is read from it. * marks the point of attachment. Ala(piperidin-4-yl) = O=C([C@H](CC1CCN([*:3])CC1)N[*:1])[*:2]; DOTA = O=C(O)CN1CCN(CC(=O)O)CCN(CC(=O)*)CCN(CC(=O)O)CC1; Trp(7-Me) = Cc1cccc2c(C[C@H](N)C(=O)O)c[nH]c12; 1Nal = N[C@@H](Cc1cccc2ccccc12)C(=O)O; 2Nal = N[C@@H](Cc1ccc2ccccc2c1)C(=O)O; NMetBuAla = CN[C@@H](CC(C)(C)C)C(=O)O; tBuAla = CC(C)(C)C[C@H](N)C(=O)O; NMeD = CN[C@@H](CC(=O)O)C(=O)O; Chg = N[C@H](C(=O)O)C1CCCCC1; αMeP = C[C@@]1(C(=O)O)CCCN1; NMeS = CN[C@@H](CO)C(=O)O; αMeS = C[C@](N)(CO)C(=O)O
# Target: T1, human DLL3 (Homo sapiens, UniProt Q9NYJ7)
# T1 construct: biotin (biotinylated)
# T1 sequence (Q9NYJ7 27-618): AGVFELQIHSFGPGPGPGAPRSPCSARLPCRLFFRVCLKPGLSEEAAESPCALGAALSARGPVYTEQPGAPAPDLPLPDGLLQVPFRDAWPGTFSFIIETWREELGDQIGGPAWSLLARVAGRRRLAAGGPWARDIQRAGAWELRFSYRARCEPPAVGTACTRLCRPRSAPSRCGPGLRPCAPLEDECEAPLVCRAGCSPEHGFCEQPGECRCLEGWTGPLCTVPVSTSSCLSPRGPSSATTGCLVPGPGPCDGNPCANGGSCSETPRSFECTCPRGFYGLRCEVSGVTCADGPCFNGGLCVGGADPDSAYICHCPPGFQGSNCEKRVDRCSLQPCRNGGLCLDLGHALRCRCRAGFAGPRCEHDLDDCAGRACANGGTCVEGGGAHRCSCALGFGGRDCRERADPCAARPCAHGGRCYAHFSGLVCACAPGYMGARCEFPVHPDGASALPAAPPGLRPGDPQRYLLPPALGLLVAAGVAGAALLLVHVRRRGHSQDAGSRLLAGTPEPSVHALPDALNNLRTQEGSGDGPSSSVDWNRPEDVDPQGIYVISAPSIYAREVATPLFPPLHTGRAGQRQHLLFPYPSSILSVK
# Test: Affinity determination by Surface Plasmon Resonance (SPR), Biacore, 1:1 binding model
# Conditions: biotinylated human DLL3 on streptavidin chip, 25° C.; NB = nonbinding
# Summary of the method: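 SPR with biotinylated human DLL3 captured on a streptavidin chip, with a reference surface subtracted. Samples were injected at several concentrations at 100 μL/min in phosphate buffer with 137 mM NaCl, 2.7 mM KCl, 0.05% P20 and 2% DMSO. Kinetic and affinity constants came from a 1:1 binding fit.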
row,SMILES,Kd [pM]
1,"CC(=O)N[C@H](C)C(=O)N[C@@](C)(CO)C(=O)N[C@@H](CC(=O)O)C(=O)N[C@H]1CSSC[C@@H](C(=O)N2CCC[C@@]2(C)C(=O)N[C@@H](Cc2ccccc2)C(=O)N[C@@H](CC(=O)O)C(=O)N[C@H](CCCCNC(=O)CN2CCN(CC(=O)O)CCN(CC(=O)O)CCN(CC(=O)O)CC2)C(N)=O)NC(=O)[C@H](CC(N)=O)NC(=O)[C@H](Cc2ccc3ccccc3c2)NC(=O)[C@H](CCC(N)=O)NC(=O)[C@H](CC(C)(C)C)NC(=O)[C@H](Cc2cccc3ccccc23)NC1=O [compound 167, Ac-(D-Ala)-(aMe-Ser)-D-C(3)-(1Nal)-(t-Bu-Ala)-Q-(2Nal)-N-C(3)-(aMe-P)-F-D-[D-Lys(DOTA)]-NH2] (Ac-[dA][αMeS]DC[1Nal][tBuAla]Q[2Nal]NC[αMeP]FD[dK](DOTA)-NH2; disulfide 4-10)",240
2,"CC(=O)N[C@H](C)C(=O)N(C)[C@@H](CO)C(=O)N[C@@H](CC(=O)O)C(=O)N[C@H]1CSSC[C@@H](C(=O)N2CCC[C@@]2(C)C(=O)N[C@@H](Cc2ccccc2)C(=O)N[C@@H](CC(=O)O)C(=O)N[C@H](CCCCNC(=O)CN2CCN(CC(=O)O)CCN(CC(=O)O)CCN(CC(=O)O)CC2)C(N)=O)NC(=O)[C@H](CC(N)=O)NC(=O)[C@H](Cc2ccc3ccccc3c2)NC(=O)[C@H](CCC(N)=O)NC(=O)[C@H](CC(C)(C)C)NC(=O)[C@H](Cc2cccc3ccccc23)NC1=O [compound 169, Ac-(D-Ala)-(NMe-Ser)-D-C(3)-(1Nal)-(t-Bu-Ala)-Q-(2Nal)-N-C(3)-(aMe-P)-F-D-[D-Lys(DOTA)]-NH2] (Ac-[dA][NMeS]DC[1Nal][tBuAla]Q[2Nal]NC[αMeP]FD[dK](DOTA)-NH2; disulfide 4-10)",57
3,"CC(=O)N[C@H](C)C(=O)N[C@@H](CO)C(=O)N(C)[C@@H](CC(=O)O)C(=O)N[C@H]1CSSC[C@@H](C(=O)N2CCC[C@@]2(C)C(=O)N[C@@H](Cc2ccccc2)C(=O)N[C@@H](CC(=O)O)C(=O)N[C@H](CCCCNC(=O)CN2CCN(CC(=O)O)CCN(CC(=O)O)CCN(CC(=O)O)CC2)C(N)=O)NC(=O)[C@H](CC(N)=O)NC(=O)[C@H](Cc2ccc3ccccc3c2)NC(=O)[C@H](CCC(N)=O)NC(=O)[C@H](CC(C)(C)C)NC(=O)[C@H](Cc2cccc3ccccc23)NC1=O [compound 170, Ac-(D-Ala)-S-(NMe-Asp)-C(3)-(1Nal)-(t-Bu-Ala)-Q-(2Nal)-N-C(3)-(aMe-P)-F-D-[D-Lys(DOTA)]-NH2] (Ac-[dA]S[NMeD]C[1Nal][tBuAla]Q[2Nal]NC[αMeP]FD[dK](DOTA)-NH2; disulfide 4-10)",380
4,"CC(=O)N[C@H](C)C(=O)N[C@@H](CO)C(=O)N[C@@H](CC(=O)O)C(=O)N[C@H]1CSSC[C@@H](C(=O)N2CCC[C@@]2(C)C(=O)N[C@@H](Cc2ccccc2)C(=O)N[C@@H](CC(=O)O)C(=O)N[C@H](CCCCNC(=O)CN2CCN(CC(=O)O)CCN(CC(=O)O)CCN(CC(=O)O)CC2)C(N)=O)NC(=O)[C@H](CC(N)=O)NC(=O)[C@H](Cc2ccc3ccccc3c2)NC(=O)[C@H](CCC(N)=O)NC(=O)[C@H](CC(C)(C)C)NC(=O)[C@H](Cc2cccc3ccccc23)NC1=O [compound 172, Ac-(D-Ala)-S-D-C(3)-(1Nal)-(t-Bu-Ala)-Q-(2Nal)-N-C(3)-(aMe-P)-F -D-[D-Lys(DOTA)]-NH2] (Ac-[dA]SDC[1Nal][tBuAla]Q[2Nal]NC[αMeP]FD[dK](DOTA)-NH2; disulfide 4-10)",37
5,"CC(=O)N[C@H](C)C(=O)N[C@@H](CO)C(=O)N[C@@H](CC(=O)O)C(=O)N[C@H]1CSSC[C@@H](C(=O)N2CCC[C@@]2(C)C(=O)N[C@@H](Cc2ccccc2)C(=O)N[C@@H](CC(=O)O)C(=O)N[C@H](CCCCNC(=O)CN2CCN(CC(=O)O)CCN(CC(=O)O)CCN(CC(=O)O)CC2)C(N)=O)NC(=O)[C@H](CC(N)=O)NC(=O)[C@H](Cc2ccc3ccccc3c2)NC(=O)[C@H](CCC(N)=O)NC(=O)[C@H](CC(C)(C)C)NC(=O)[C@H](Cc2c[nH]c3c(C)cccc23)NC1=O [compound 173, Ac-(D-Ala)-S-D-C(3)-(7Me-W)-(t-Bu-Ala)-Q-(2Nal)-N-C(3)-(aMe-P)-F -D-[D-Lys(DOTA)]-NH2] (Ac-[dA]SDC[Trp(7-Me)][tBuAla]Q[2Nal]NC[αMeP]FD[dK](DOTA)-NH2; disulfide 4-10)",480

# More lines, now with the values ahead:
row,Kd [pM],SMILES
1,94,"CC(=O)N[C@H](C)C(=O)N[C@@H](CO)C(=O)N[C@@H](CC(=O)O)C(=O)N[C@H]1CSSC[C@@H](C(=O)N2CCC[C@@]2(C)C(=O)N[C@@H](Cc2ccccc2)C(=O)N[C@@H](CC(=O)O)C(=O)N[C@H](CCCCNC(=O)CN2CCN(CC(=O)O)CCN(CC(=O)O)CCN(CC(=O)O)CC2)C(N)=O)NC(=O)[C@H](CC(N)=O)NC(=O)[C@H](Cc2ccc3ccccc3c2)NC(=O)[C@H](C)NC(=O)[C@H](CC(C)(C)C)NC(=O)[C@H](Cc2cccc3ccccc23)NC1=O [compound 165, Ac-(D-Ala)-S-D-C(3)-(1Nal)-(t-Bu-Ala)-Ala-(2Nal)-N-C(3)-(aMe-P)-F-D-[D-Lys(DOTA)]-NH2] (Ac-[dA]SDC[1Nal][tBuAla]A[2Nal]NC[αMeP]FD[dK](DOTA)-NH2; disulfide 4-10)"
2,1210,"CC(=O)N[C@H](C)C(=O)N[C@@H](CO)C(=O)N[C@@H](CC(=O)O)C(=O)N[C@H]1CSSC[C@@H](C(=O)N2CCC[C@@]2(C)C(=O)N[C@@H](Cc2ccccc2)C(=O)N[C@@H](CC(=O)O)C(=O)N[C@H](CCCCNC(=O)CN2CCN(CC(=O)O)CCN(CC(=O)O)CCN(CC(=O)O)CC2)C(N)=O)NC(=O)[C@H](CC(N)=O)NC(=O)[C@H](Cc2ccc3ccccc3c2)NC(=O)[C@H](CCC(N)=O)NC(=O)[C@H](CC(C)(C)C)N(C)C(=O)[C@H](Cc2cccc3ccccc23)NC1=O [compound 171, Ac-(D-Ala)-S-D-C(3)-(1Nal)-(NMe-Tba)-Q-(2Nal)-N-C(3)-(aMe-P)-F -D-[D-Lys(DOTA)]-NH2] (Ac-[dA]SDC[1Nal][NMetBuAla]Q[2Nal]NC[αMeP]FD[dK](DOTA)-NH2; disulfide 4-10)"
3,230,"CC(=O)N[C@H](C(=O)N[C@@H](CO)C(=O)N[C@@H](CC(=O)O)C(=O)N[C@H]1CSSC[C@@H](C(=O)N2CCC[C@@]2(C)C(=O)N[C@@H](Cc2ccccc2)C(=O)N[C@@H](CC(=O)O)C(N)=O)NC(=O)[C@H](CC(N)=O)NC(=O)[C@H](Cc2ccc3ccccc3c2)NC(=O)[C@H](CCCCNC(=O)CN2CCN(CC(=O)O)CCN(CC(=O)O)CCN(CC(=O)O)CC2)NC(=O)[C@H](CC(C)(C)C)NC(=O)[C@H](Cc2cccc3ccccc23)NC1=O)C1CCCCC1 [compound 174, Ac-(Chg)-S-D-C(3)-(1Nal)-(t-Bu-Ala)-[L-Lys(DOTA)]-(2Nal)-N-C(3)-(aMe-P)-F -D-CONH2] (Ac-[Chg]SDC[1Nal][tBuAla]K(DOTA)[2Nal]NC[αMeP]FD-NH2; disulfide 4-10)"
4,67,"C[C@@H](NC(=O)CN1CCN(CC(=O)O)CCN(CC(=O)O)CCN(CC(=O)O)CC1)C(=O)N[C@@H](CO)C(=O)N[C@@H](CC(=O)O)C(=O)N[C@H]1CSSC[C@@H](C(=O)N2CCC[C@@]2(C)C(=O)N[C@@H](Cc2ccccc2)C(=O)N[C@@H](CC(=O)O)C(N)=O)NC(=O)[C@H](CC(N)=O)NC(=O)[C@H](Cc2ccc3ccccc3c2)NC(=O)[C@H](CC2CCNCC2)NC(=O)[C@H](CC(C)(C)C)NC(=O)[C@H](Cc2cccc3ccccc23)NC1=O [compound 175, DOTA-(D-Ala)-S-D-C(3)-(1Nal)-(t-Bu-Ala)-[3-(4-piperidinyl)-Ala]-(2Nal)-N-C(3)-(aMe-P)-F -D-CONH2] ({DOTA}-[dA]SDC[1Nal][tBuAla][Ala(piperidin-4-yl)][2Nal]NC[αMeP]FD-NH2; disulfide 4-10)"
